Experiment: Toxicity in iv dosed mouse
Assay type: organism-based
Settings: in vivo

SMILES: CCC(C)c1cc2c(Cl)c3c(c(O)c2c(=O)n1N)-c1c(O)c2c(c4c1[C@@H](C3)OCO4)O[C@H]1[C@@H](C2=O)[C@@H](O)C=C[C@H]1OC (stereo partly specified)
- LD50: 1 mg/kg
